The text below walks through data of US20250152584A1, “NLRP3 INFLAMMASOME INHIBITOR AND USES THEREOF” (TransThera Sciences (Nanjing), Inc., priority 2022, published 2025).

A short description of series [1]: Pharmacokinetic study in SD male rats. Format: in vivo. To be noted: rat, plasma; for clearance: read-out: Cl—obs iv (clearance rate) (converted); for Vd: read-out: Vss iv (volume of distribution); for bioavailability: iv 1.0 mg/kg / po 5.0 mg/kg, read-out: F % (absolute bioavailability); for Tmax: median, read-out: Tmax po (peak time of plasma concentration); for Cmax: read-out: Cmax po (peak concentration). The method, then:
Experimental Example 3: Pharmacokinetic Study of Compounds in SD Male Rats
Compound 54, Compound 55, Compound 174, Compound 173, and Compound 264 were prepared into solutions with a mixed solvent formulated from 5% dimethyl sulfoxide, 20% (30% solutol) and 75% normal saline, respectively; the solution of each compound was administered to SD male rats by gavage at a dose of 5.0 mg/kg; and the time points for blood collection were: 15 min, 30 min, 1 h, 2 h, 4 h, 6 h, 8 h, 10 h and 24 h. The solution of the compound was administered to male SD rats by intravenous bolus at a dose of 1.0 mg/kg, and the time points for blood collection were as follows: 5 min, 15 min, 30 min, 1 h, 2 h, 4 h, 6 h, 8 h, 10 h, and 24 h.
On the day before administration, the jugular vein of each animal was cannulated; and after administration, about 300 μL of blood was collected through the jugular vein, and then placed in an anticoagulant tube containing EDTA-K2. Blood samples were centrifuged at 12,000 rpm for 10 min at 4° C. to obtain plasma samples, and plasma was prepared within 30 min after blood collection. The plasma was stored in a −80° C. freezer before testing.
• 1. The samples were taken from the −80° C. freezer, thawed naturally at room temperature, and then vortexed for 5 min. • 2. 30 μL of a plasma sample was precisely pipetted into a 1.5 mL centrifuge tube. • 3. 750 μL of an internal standard working solution (the acetonitrile solution of tolbutamide) at a concentration of […] was added and mixed well. • 4. After vortexing for 5 min, the mixture was centrifuged at 12,000 rpm for 5 min. • 5. 50 μL of the supernatant was accurately pipetted into a 96-well plate preloaded with water at 150 μL/well. • 6. Vortexing was performed for 5 min for sufficient mixing, and LC-MS/MS analysis was then conducted.
(§1) The results of the concentrations of the compounds under test were output using Analyst 1.6.3 of AB. Parameters such as mean, standard deviation, coefficient of variation was calculated by Microsoft Excel (parameters directly output by Analyst 1.6.3 needed no calculation), and PK parameters were calculated by WinNonlin Phenoix 8.2 software NCA (Tmax as the median).

A short description of series [2]: Pharmacokinetic study in C57BL/6J mice. Format: in vivo. The following applies: mouse, plasma, C57BL/6J female mice; for Tmax: median, read-out: Tmax po (peak time of plasma concentration); for Cmax: read-out: Cmax po (peak concentration); for clearance: read-out: Cl—obs iv (clearance rate) (converted); for Vd: read-out: Vss iv (volume of distribution); for bioavailability: iv 5 mg/kg / po 10 mg/kg, read-out: F % (absolute bioavailability). The method, then: Experimental Example 2: Pharmacokinetic Study of Compounds in C57BL/6J Mice
Compound 100, Compound 54, Compound 174, Compound 179, and Compound 253 were prepared into solutions with a mixed solvent formulated from 5% dimethyl sulfoxide, 20% (30% solutol) and 75% normal saline, respectively; the solution of each compound was administered to C57BL/6J female mice by gavage at a dose of 10 mg/kg; and the time points for blood collection were: 15 min, 30 min, 1 h, 2 h, 4 h, 6 h, 8 h and 24 h. The solution of the compound was administered to C57BL/6J female mice by intravenous bolus at a dose of 5 mg/kg, and the time points for blood collection were as follows: 5 min, 15 min, 30 min, 1 h, 2 h, 4 h, 6 h, 8 h, and 24 h.
Compound 1 was prepared into a solution with a mixed solvent formulated from 5% DME, 20% (30% solutol) and 75% normal saline; the solution of this compound was administered to C57BL/6J female mice by gavage at a dose of 10 mg/kg, and the time points for blood collection were: 15 min, 30 min, 1 h, 2 h, 4 h, 6 h, 8 h, and 24 h. The solution of the compound was administered to C57BL/6J female mice by intravenous bolus at a dose of 5 mg/kg, and the time points for blood collection were as follows: 5 min, 15 min, 30 min, 1 h, 2 h, 4 h, 6 h, 8 h, and 24 h.
Compound 195 was prepared into a solution with a mixed solvent formulated from 5% dimethyl sulfoxide, 20% PEG400 and 75% normal saline; the solution of this compound was administered to C57BL/6J female mice by gavage at a dose of 10 mg/kg; and the time points for blood collection were 15 min, 30 min, 1 h, 2 h, 4 h, 6 h, 8 h, and 24 b. The solution of the compound was administered to C57BL/6J female mice by intravenous bolus at a dose of 5 mg/kg, and the time points for blood collection were as follows: 5 min, 15 min, 30 min, 1 h, 2 b, 4 h, 6 h, 8 h, and 24 h.
Approximately 100 μL of blood was collected through the retroorbital venous plexus, and was then placed in an anticoagulant tube containing EDTA-K2. Blood samples were centrifuged at 12,000 rpm for 10 min at 4° C. to obtain plasma samples, and plasma was prepared within 30 min after blood collection. The plasma was stored in a −80° C. freezer before testing.
• 1. The samples were taken from the −80° C. freezer, thawed naturally at room temperature, and then vortexed for 5 min • 2. 10 μL of a plasma sample was precisely pipetted from different individuals into a 1.5 mL centrifuge tube. • 3. 300 μL of an internal standard working solution (the acetonitrile solution of tolbutamide) at a concentration of […] was added and mixed well. • 4. After vortexing for 5 min, the mixture was centrifuged at 12,000 rpm for 5 min. • 5. 50 μL of the supernatant was accurately pipetted into a 96-well plate preloaded with water at 150 μL/well. • 6. Vortexing was performed for 5 min for sufficient mixing, and LC-MS/MS analysis was then conducted.
as §1

Where [3] appears, read: intravenous bolus 1.0 mg/kg, read-out: AUClast iv (area under the drug-time curve for 0-24 h).
Where [4] appears, read: intravenous bolus 1.0 mg/kg, read-out: tz1/2 iv (terminal elimination half-life) (converted).
Setting [5] is: po, gavage 5.0 mg/kg, read-out: AUClast po (area under the drug-time curve for 0-24 h).
The mark [6] stands for this setting: po, gavage 5.0 mg/kg, read-out: tz1/2 po (terminal elimination half-life) (converted).
[7] abbreviates: po, gavage 10 mg/kg, read-out: AUClast po (area under the drug-time curve for 0-24 h).
Setting [8] is: po, gavage 10 mg/kg, read-out: tz1/2 po (terminal elimination half-life) (converted).
Setting [9] is: intravenous bolus 5 mg/kg, read-out: AUClast iv (area under the drug-time curve for 0-24 h).
The mark [10] stands for this setting: intravenous bolus 5 mg/kg, read-out: tz1/2 iv (terminal elimination half-life) (converted).

Each structure is given as a SMILES string.

On to `C#Cc1ccc(-c2nnc(N[C@@H]3CCCN(C)C3)cc2C)c(O)c1` [Compound 54, (R)-5-ethynyl-2-(4-methyl-6-((1-methylpiperidin-3-yl)amino)pyridazin-3-yl)phenol], for which the AUC(0-t) in series [1] (setting [3]) stood at 749 ng·h/mL; in series [1] (setting [5]), 3790 ng·h/mL; in series [2] (setting [7]), 4130 ng·h/mL; in series [2] (setting [9]), 2400 ng·h/mL. Besides, the clearance in series [1] (intravenous bolus 1.0 mg/kg) was 20.2 mL/min/kg; in series [2] (intravenous bolus 5 mg/kg), 30.5 mL/min/kg. The Vd in series [1] (intravenous bolus 1.0 mg/kg) came to 5.01 L/kg; in series [2] (intravenous bolus 5 mg/kg), 6.59 L/kg. In addition, the half-life is 2.97 h in series [1] (setting [4]), 3.94 h in series [1] (setting [6]), 3.04 h in series [2] (setting [8]) and 2.97 h in series [2] (setting [10]). For the same molecule, the bioavailability came out at 93.1% in series [1] and 75.6% in series [2]. Also, the Tmax in series [1] (po, gavage 5.0 mg/kg) was determined as 1 h; in series [2] (po, gavage 10 mg/kg), 1 h. The Cmax in series [1] (po, gavage 5.0 mg/kg) worked out at 442 ng/mL; in series [2] (po, gavage 10 mg/kg) it was 820 ng/mL.
As for `CC#Cc1ccc(-c2nnc(N[C@@H]3CCCN(C)C3)cc2C)c(O)c1` [Compound 174, (R)-2-(4-methyl-6-((1-methylpiperidin-3-yl)amino)pyridazin-3-yl)-5-(prop-1-yn-1-yl)phenol], the AUC(0-t) came to 813 ng·h/mL in series [1] (setting [3]), 4430 ng·h/mL in series [1] (setting [5]), 20100 ng·h/mL in series [2] (setting [7]) and 8610 ng·h/mL in series [2] (setting [9]). The clearance is 18.2 mL/min/kg in series [1] (intravenous bolus 1.0 mg/kg) and 9.57 mL/min/kg in series [2] (intravenous bolus 5 mg/kg). The Vd in series [1] (intravenous bolus 1.0 mg/kg) was 4.82 L/kg; in series [2] (intravenous bolus 5 mg/kg), 2.64 L/kg. Also, the half-life in series [1] (setting [4]) is 3.6 h; in series [1] (setting [6]), 3.51 h; in series [2] (setting [8]) it was 3.82 h; in series [2] (setting [10]), 3.95 h. Besides, the bioavailability was determined as 97% in series [1] and 116% in series [2]. The Tmax in series [1] (po, gavage 5.0 mg/kg) is 2 h; in series [2] (po, gavage 10 mg/kg), 0.5 h. Further, the Cmax in series [1] (po, gavage 5.0 mg/kg) stood at 465 ng/mL; in series [2] (po, gavage 10 mg/kg) it was 3160 ng/mL.

As usually defined, the clearance is a measure of how efficiently the substance is removed, as volume per time.
